Assay results from PMC10609173, “Antiplasmodial and Antileishmanial Activities of a New Limonoid and Other Constituents from the Stem Bark of Khaya senegalensis” (Molecules, 2023).
Converted amounts (≈) assume the structure as drawn.

Tests used:
[1] = parameters: method as in PMID 30663371; conditions: limonoid from Meliaceae; cited from earlier work
[2] = Cytotoxicity assay (resazurin) on RAW 264.7 macrophages; format: cell-based, murine; conditions: mouse, RAW 264.7 macrophage cells; RAW 264.7 macrophages, 48 h incubation, resazurin; read-out: Cytotoxicity on RAW 264.7 Cells CC50 ± SD
Procedure: The murine macrophage RAW 264.7 cell line was grown in DMEM (Dulbecco’s modified Eagle’s medium) containing 1% penicillin-streptomycin, 1% nonessential amino acids (NEA), and 10% HIFBS at 37 °C, and 5% CO2 in a humidified environment. A reverse Etaluma fluorescence microscope was used to view the cells every day, and the growth media was replaced every 72 h. At 80% confluence, cells were isolated using 0.25% Trypsine-EDTA (Gibco, MT, USA).
The murine macrophages, RAW 264.7 cells, were plated into a 96-well cell culture treated flat-bottomed plate ([…], Inc., Newton, NC 28658, USA) at a density of 10 × 10^4 cells/100 μL/well and incubated overnight to enable cell adhesion. A fresh complete medium containing serially diluted concentrations of crude extract, fractions, and compounds was used to replace the previous medium. The final assay concentration values for extracts/fractions and compounds varied from 400 μg/mL to 0.8 μg/mL and 100–0.16 μg/mL, respectively. Podophyllotoxin (Sigma-Aldrich, Munich, Germany) was used as a positive control at a maximum dose of 10 μM. After 48 h of incubation, 10 μL of resazurin solution (0.15 mg/mL dissolved in PBS) was added to each well, and the plates were incubated for an additional 4 h. Fluorescence data were finally recorded with a Magellan Infinite M200 plate reader (Tecan, Germany) at excitation and emission wavelengths of 530 nm and 590 nm, respectively.
(§1) The resulting fluorescence readings were used to calculate the growth inhibition percentages relative to the negative control for each sample and for each of the tested doses. GraphPad Prism 8.0 software was used to generate concentration-response curves from the nonlinear regression fit to determine the median inhibitory or cytotoxic concentration (IC50/CC50). The resistance index (RI) for antiplasmodial tests was calculated as the ratio between the samples’ IC50 values for the chloroquine-sensitive strain 3D7 and the multiresistant strain Dd2 [69]. Inhibitors with an RI value below 1 were considered to act preferentially on the resistant strain. Based on each inhibitor’s antiparasitic efficacy (IC50) and cell toxicity (CC50), selectivity indices (SI) were calculated [SI = CC50 (RAW)/IC50 (Parasites)]. Samples were classified as poorly toxic to RAW cells if their SI values were greater than 10 [70].

[3] = system: promastigote; parameters: method as in PMID 24949478; conditions: isolate from Canarium patentinervium; cited from earlier work
[4] = system: chloroquine-sensitive 3D7 strain of Plasmodium falciparum (Pf3D7); assay: Antiplasmodial SYBR Green I fluorescence assay, Pf3D7 strain; format: cell-based; conditions: 3D7, Pf3D7 strain, ring stage, 72 h, read-out: Antiplasmodial Activity Pf3D7 IC50 ± SD
Excerpt: (§2) The parasite strains used in this study are continuously cultured at the Antimicrobial and Biocontrol Agents Unit of the University of Yaoundé I, and were graciously provided by BEI Resources (https://www.beiresources.org (accessed on 16 February 2019)). They comprise the Leishmania donovani strain (1S(MHOM/SD/62/1S), the multiresistant (PfDd2), and the chloroquine-sensitive (Pf3D7-(MRA-102)) strains of Plasmodium falciparum. RPMI 1640 media supplemented with 0.2% sodium bicarbonate (Sigma Aldrich, Billings, MT, USA), 0.5% Albumax II (Gibco), 1% hypoxanthine 100X (Gibco, Billings, MT, USA), 25 mM HEPES, and 0.04% gentamicin (Sigma Aldrich) was used to sustain P. falciparum strains in sterile petri dishes. Fresh red blood cells from healthy O^+ human volunteers were also added to the medium. These cells were suspended at 4% hematocrit (v/v) and incubated at 37 °C in a humidified environment with 5% CO2. To regularly maintain the culture, fresh medium was added to the culture every day. Thin blood smears stained with 10% Giemsa were used to microscopically monitor cell-cycle transition and parasitemia under immersion oil.
(§3) The antiplasmodial efficacy of the samples was evaluated using the SYBR Green I-based fluorescence assay, as previously reported by Smilkstein et al., on a sorbitol-synchronized ring stage culture of Plasmodium falciparum (PfDd2 and Pf3D7 strains). The test relies on the development of intense fluorescence following SYBR green binding to the exposed DNA found in wells containing healthy cells. Ninety microliters of parasites prepared with 1% hematocrit and 2% parasitemia and 10 μL of test sample extracts, fractions, isolated chemicals, chloroquine, and artemisinin were each added in triplicate into wells of a flat-bottomed microplate. The final test concentration values for the samples varied from 50 μg/mL-0.08 μg/mL and 100 μg/mL-0.16 μg/mL for extract/fractions. Following a 72 h incubation at 37 °C, 100 μL of SYBR Green I solution prepared with lysis buffer (0.2 μL of 10,000 SYBR Green I per mL of lysis buffer) made of EDTA (5 mM), Tris (20 mM; pH 7.5), Triton X-100 (0.08%; v/v), and saponin (0.008%; m/v) was added to each well. Fluorescence measurements were taken using an Infinite M200 microplate reader (Tecan, MT, USA) at emission and excitation wavelengths of 538 and 485 nm, respectively.
as §1

[5] = parameters: method as in PMID 36249737, PMID 20162079; conditions: 400 mg/kg; from leaf extract of Osyris quadripartita; cited from earlier work
[6] = system: promastigote form of Leishmania donovani (1S(MHOM/SD/62/1S)); assay: Antileishmanial resazurin-based assay on promastigotes; format: cell-based
Procedure: A T-75 cm^2 cell culture flask was filled with complete Medium 199 [M199 supplemented with 10% heat-inactivated fetal bovine serum (HIFBS) and 100 IU/mL penicillin/streptomycin (Sigma, Darmstadt, Germany)] and used to grow the promastigote forms of Leishmania donovani. Every 72 h, flasks were subcultured and incubated at 28 °C.
The resazurin-based assay was used to evaluate the antileishmanial activity of the extract (100 μg/mL–0.16 μg/mL), major fractions (100 μg/mL–0.16 μg/mL), and isolated compounds (50 μg/mL–0.08 μg/mL) against the promastigote form of Leishmania donovani. Briefly, 10 μL of inhibitors at various triplicate doses (as prescribed for the antiplasmodial assay) were added to 90 μL of promastigotes from a logarithmic phase culture at a density of 4.10^5 parasites/mL. The plates were incubated for 28 h at 28 °C, and 10 μL of resazurin solution (Sigma, Darmstadt, Germany) was added. Amphotericin B (Sigma, Darmstadt, Germany) (10 μg–0.016 μg/mL) and 0.1% DMSO-treated wells were used as the […], respectively. After a further 44 h of incubation, plates were read using a Magelan Infinite M200 fluorescence plate reader (Tecan, Männedorf, Switzerland) at excitation and emission wavelengths of 530 and 590 nm, respectively.
as §1

[7] = system: multidrug-resistant Dd2 strain of Plasmodium falciparum (PfDd2); assay: Antiplasmodial SYBR Green I fluorescence assay, PfDd2 strain; format: cell-based
Excerpt: as §2, §3, §1

[8] = parameters: method as in PMID 30663371; conditions: limonoid from Meliaceae; cited from earlier work; remark: listed apart in the source

CC(=O)O[C@@H]1C[C@H]2C(C)(C)OC(=O)C=C[C@]2(C)[C@H]2CC[C@@]3(C)[C@@H](c4ccoc4)OC(=O)[C@H]4O[C@]43[C@@]21C [7α-obacunyl acetate]
IC50, antiplasmodial activity [1]: 5.14 µg/mL

Oc1cc(O)c2c(c1)O[C@H](c1ccc(O)c(O)c1)[C@@H](O)C2 [Catechin (9), catechin]
CC50 at 48 h [2]: > 400 µg/mL
IC50, antipromastigote activity [3]: 478.93 ± 0.28 µg/mL (≈ 1650 µM)
IC50 [4]: 111.96 ± 0.04 µg/mL (≈ 386 µM)
antimalarial effect, suppression value [5]: 64.26%
IC50 ([6]; Leishmania donovani, L. donovani promastigotes, 28 °C, read-out: Antileishmanial Activity IC50 ± SD): 27 ± 0.7 µg/mL (≈ 92.9 µM)
Antileishmanial Selectivity (SI) ([6]; SI = CC50 against macrophages/IC50 against promastigotes): >14.83
Antiplasmodial Activity PfDd2 IC50 ± SD ([7]; PfDd2 strain, ring stage, 72 h): 2.93 ± 0.02 µg/mL
IC50 ([7]; Plasmodium falciparum, DD2, 72 h, read-out: Antiplasmodial Activity PfDd2 IC50 ± SD, PfDd2 strain, ring stage, 72 h): 2.95 µg/mL (≈ 10.2 µM)

trigilgianin
IC50, antileishmanial activity [8]: 6.044 µg/mL
